Each structure is given as a SMILES string. Like-named read-outs stand apart in the source and are kept apart here. Bounds are passed on as bounds.

In one assay the test system is HT1080 cells. Kind of assay: Cellular assay for IDH1m inhibitors: inhibition of 2-HG production (LC-MS, 48 hours) in HT1080 cells. The class given is cell-based. The following applies: Homo sapiens, HT-1080; inhibition of 2-HG production, HT1080 cells; read-out: HT1080 IC50. As to the method:
Cells (e.g., HT1080 or U87MG) and are grown in T125 flasks in DMEM containing 10% FBS, 1× penicillin/streptomycin and 500 ug/mL G418. They are harvested by trypsin and seeded into 96 well white bottom plates at a density of 5000 cell/well in 100 ul/well in DMEM with 10% FBS. No cells are plates in columns 1 and 12. Cells are incubated overnight at 37° C. in 5% CO2. The next day compounds are made up at 2× concentration and 100 ul are added to each cell well. The final concentration of DMSO is 0.2% and the DMSO control wells are plated in row G. The plates are then placed in the incubator for 48 hours. At 48 hours, 100 μl of media is removed from each well and analyzed by LC-MS for 2-HG concentrations. The cell plate is placed back in the incubator for another 24 hours. At 72 hours post compound addition, 10 mL/plate of Promega Cell Titer Glo reagent is thawed and mixed. The cell plate is removed from the incubator and allowed to equilibrate to room temperature. Then 100 ul of reagent is added to each well of media. The cell plate is then placed on an orbital shaker for 10 minutes and then allowed to sit at room temperature for 20 minutes. The plate is then read for luminescence with an integration time of 500 ms.
The IC50 for inhibition of 2-HG production (concentration of test compound to reduce 2HG production by 50% compared to control) in these two cell lines for various compounds of formula I is set forth in Table 4 above.

Another assay concerns the target IDH1 R132H (Homo sapiens, UniProt O75874, R132H). Kind of assay: Assay for IDH1 R132H inhibitors (NADPH/aKG, resazurin detection). Format: biochemical. Summed up: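 Read-out is resorufin fluorescence (Ex544/Em590) 5 min after adding a 30 μM resazurin detection mix. Before that, mutant enzyme (0.2 μg/ml in its mix) ran 50 min at room temperature with compound, 8 uM NADPH and 2 mM aKG (mix levels) in Tris pH 7.5 with NaCl, MgCl2, BSA.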
A general note: The colour change of resazurin is a common sign of viable cells or microbes.

Where [1] appears, read: enzyme assay of Example 12, read-out: IDH1R132H IC50.

IDH1 R132H, sequence (O75874 whole entry R132H): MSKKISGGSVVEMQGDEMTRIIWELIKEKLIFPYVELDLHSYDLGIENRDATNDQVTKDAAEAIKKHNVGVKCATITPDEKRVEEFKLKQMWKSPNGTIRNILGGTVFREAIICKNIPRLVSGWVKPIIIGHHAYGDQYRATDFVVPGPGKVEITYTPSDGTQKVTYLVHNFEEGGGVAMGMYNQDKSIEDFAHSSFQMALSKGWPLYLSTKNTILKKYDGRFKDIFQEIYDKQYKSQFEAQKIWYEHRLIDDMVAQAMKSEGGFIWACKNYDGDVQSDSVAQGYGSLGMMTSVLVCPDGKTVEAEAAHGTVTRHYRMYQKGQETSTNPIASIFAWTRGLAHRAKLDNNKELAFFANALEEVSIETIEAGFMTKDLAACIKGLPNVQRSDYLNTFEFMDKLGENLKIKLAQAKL

What is called IC50 is the concentration that gives 50% inhibition. As for `N#Cc1cc(-c2cccc3c[n+]([O-])ccc23)c(C2CC2)nc1N1CCN(C(=O)C2CC2)[C@H](C2CC2)C1` [Compound 439, (R)-5-(5-cyano-6-(4-(cyclopropanecarbonyl)-3-cyclopropylpiperazin-1-yl)-2-cyclopropylpyridin-3-yl)isoquinoline 2-oxide], the IC50 in the assay on HT1080 cells and at IDH1 R132H (setting [1]) was under 500 nM in each case. As for `C=Cc1cc(-c2cc(C#N)c(N3CCN(C(=O)C4(O)CC4)[C@H](C)C3)nc2C2CC2)ccn1` [Compound 664, (R)-2-cyclopropyl-6-(4-(1-hydroxycyclopropanecarbonyl)-3-methylpiperazin-1-yl)-2′-vinyl-3,4′-bipyridine-5-carbonitrile], the IC50 in the assay with HT1080 cells and on IDH1 R132H (setting [1]) was under 500 nM in each case. Turning to `CCS(=O)(=O)N1CCN(c2cc(C#N)c(N3CCN(C(=O)C4CC4)[C@H](C4CC4)C3)nc2C2CC2)CC1` [Compound 529, (R)-2-(4-(cyclopropanecarbonyl)-3-cyclopropylpiperazin-1-yl)-6-cyclopropyl-5-(4-(ethylsulfonyl)piperazin-1-yl)nicotinonitrile], the IC50 in the assay with HT1080 cells is 500 to 1000 nM; at IDH1 R132H (setting [1]), under 500 nM. The matching figures for `C=CC(=O)N1CCOC(c2cc(C#N)c(N3CCN(C(=O)C4CC4)[C@H](C)C3)nc2C2CC2)C1` (stereo partly drawn) [Compound 600, 5-(4-acryloylmorpholin-2-yl)-2-((R)-4-(cyclopropanecarbonyl)-3-methylpiperazin-1-yl)-6-cyclopropylnicotinonitrile]: 500 to 1000 nM and 500 to 1000 nM. On the same counts, the results for `C=Cc1ncccc1-c1cc(C#N)c(N2CCN(C(=O)CCOC)[C@H](C)C2)nc1C1CC1` [Compound 619, (R)-2-cyclopropyl-6-(4-(3-methoxypropanoyl)-3-methylpiperazin-1-yl)-2′-vinyl-3,3′-bipyridine-5-carbonitrile] are under 500 nM and under 500 nM. On the same counts, the results for `C=Cc1cc(-c2cc(C#N)c(N3CCN(C(=O)CCO)C(C)C3)nc2C2CC2)ccn1` (centres unmarked) [Compound 572] are under 500 nM and under 500 nM. As for `N#Cc1cc(-c2cccc3c(O)nccc23)c(C2CC2)nc1N1CCN(C(=O)C2CC2)[C@H](C2CC2)C1` [Compound 566, (R)-2-(4-(cyclopropanecarbonyl)-3-cyclopropylpiperazin-1-yl)-6-cyclopropyl-5-(1-hydroxyisoquinolin-5-yl)nicotinonitrile], the IC50 is 500 to 1000 nM in the assay on HT1080 cells and under 500 nM on IDH1 R132H (setting [1]). The matching figures for `C=Cc1ncc(Cl)c(-c2cc(C#N)c(N3CCN(C(=O)C4CC4)[C@H](C4CC4)C3)nc2C2CC2)n1` [Compound 533, (R)-5-(5-chloro-2-vinylpyrimidin-4-yl)-2-(4-(cyclopropanecarbonyl)-3-cyclopropylpiperazin-1-yl)-6-cyclopropylnicotinonitrile]: 1000 to 10000 nM and 500 to 1000 nM. For `C[C@@H]1CN(c2nc(C3CC3)c(Nc3ccc(C#N)nc3)cc2C#N)CCN1C(=O)CCO` [Compound 582, (R)-5-((5-cyano-2-cyclopropyl-6-(4-(3-hydroxypropanoyl)-3-methylpiperazin-1-yl)pyridin-3-yl)amino)picolinonitrile], the IC50 in the assay with HT1080 cells was 1000 to 10000 nM; at IDH1 R132H (setting [1]) it was under 500 nM. On the same counts, the results for `C=Cc1ccc(Nc2cc(C#N)c(N3CCN(C(=O)CCO)[C@H](C)C3)nc2C2CC2)cn1` [Compound 577, (R)-6-cyclopropyl-2-(4-(3-hydroxypropanoyl)-3-methylpiperazin-1-yl)-5-((6-vinylpyridin-3-yl)amino)nicotinonitrile] are under 500 nM and under 500 nM. The matching figures for `C=Cc1cc(-c2cc(C#N)c(N3CCN(C(=O)CCOC)[C@H](C)C3)nc2C2CC2)cc(C=C)n1` [Compound 624, (R)-2-cyclopropyl-6-(4-(3-methoxypropanoyl)-3-methylpiperazin-1-yl)-2′,6′-divinyl-[3,4′-bipyridine]-5-carbonitrile]: under 500 nM and under 500 nM. Consider `C=Cc1ccnc(-c2cc(C#N)c(N3CCN(C(=O)CCOC)[C@H](C)C3)nc2C2CC2)c1` [Compound 596, (R)-2′-cyclopropyl-6′-(4-(3-methoxypropanoyl)-3-methylpiperazin-1-yl)-4-vinyl-2,3′-bipyridine-5′-carbonitrile], for which the IC50 with HT1080 cells and on IDH1 R132H (setting [1]) was under 500 nM each time. With `C=CC(=O)N1CCCC(c2cc(C#N)c(N3CCN(C(=O)C4CC4)[C@H](C)C3)nc2C2CC2)C1` (stereo partly drawn) [Compound 576, 5-(1-acryloylpiperidin-3-yl)-2-((R)-4-(cyclopropanecarbonyl)-3-methylpiperazin-1-yl)-6-cyclopropylnicotinonitrile], the values for the IC50 with HT1080 cells and on IDH1 R132H (setting [1]) were under 500 nM and 500 to 1000 nM, respectively. Regarding `C=Cc1cc(-c2cc(C#N)c(N3CCN(C(=O)CCOC)[C@H](C)C3)nc2C2CC2)cc(OC)n1` [Compound 622, (R)-2-cyclopropyl-2′-methoxy-6-(4-(3-methoxypropanoyl)-3-methylpiperazin-1-yl)-6′-vinyl-[3,4′-bipyridine]-5-carbonitrile], the IC50 lay within 1000 to 10000 nM with HT1080 cells and 500 to 1000 nM on IDH1 R132H (setting [1]). The matching figures for `N#Cc1cc(-c2cnc3[nH]ccc3c2)c(C2CC2)nc1N1CCN(C(=O)CC(F)(F)F)[C@H](C2CC2)C1` [Compound 539, (R)-6-cyclopropyl-2-(3-cyclopropyl-4-(3,3,3-trifluoropropanoyl)piperazin-1-yl)-5-(1H-pyrrolo[2,3-b]pyridin-5-yl)nicotinonitrile]: 1000 to 10000 nM and under 500 nM. On the same counts, the results for `CC(=O)N1CCN(c2nc(C3CC3)c(-c3cccc4cnccc34)cc2C#N)C[C@H]1C` [Compound 516, (R)-2-(4-acetyl-3-methylpiperazin-1-yl)-6-cyclopropyl-5-(isoquinolin-5-yl)nicotinonitrile] are 500 to 1000 nM and under 500 nM. On the same counts, the results for `C=Cc1ccnc(Nc2cc(C#N)c(N3CCN(C(=O)CCCO)[C@H](C4CC4)C3)nc2C2CC2)c1` [Compound 815, (R)-6-cyclopropyl-2-(3-cyclopropyl-4-(4-hydroxybutanoyl)piperazin-1-yl)-5-((4-vinylpyridin-2-yl)amino)nicotinonitrile] are under 500 nM and under 500 nM. Regarding `N#Cc1ccnc(Nc2cc(C#N)c(N3CCN(C(=O)C[C@H]4CCO4)[C@H](C4CC4)C3)nc2C2CC2)c1` [Compound 809, 5-(4-cyanopyridin-2-ylamino)-6-cyclopropyl-2-((R)-3-cyclopropyl-4-(2-((R)-oxetan-2-yl)acetyl)piperazin-1-yl)nicotinonitrile], the IC50 in the assay on HT1080 cells and on IDH1 R132H (setting [1]) was under 500 nM each time. As to `N#Cc1cc(-c2ccc3ncsc3c2)c(C2CC2)nc1N1CCN(C(=O)CC(F)(F)F)[C@H](C2CC2)C1` [Compound 537, (R)-5-(benzo[d]thiazol-6-yl)-6-cyclopropyl-2-(3-cyclopropyl-4-(3,3,3-trifluoropropanoyl)piperazin-1-yl)nicotinonitrile], the IC50 is 500 to 1000 nM in the assay on HT1080 cells and under 500 nM on IDH1 R132H (setting [1]). On the same counts, the results for `C=Cc1cc(-c2cc(C#N)c(N3CCN(C(=O)CCOC)[C@H](C)C3)nc2C2CC2)cc(C#N)n1` [Compound 672, (R)-2-cyclopropyl-6-(4-(3-methoxypropanoyl)-3-methylpiperazin-1-yl)-6′-vinyl-[3,4′-bipyridine]-2′,5-dicarbonitrile] are 1000 to 10000 nM and 500 to 1000 nM.

Regarding `COCCC(=O)N1CCN(c2nc(C3CC3)c(-c3cccc(NC(C)=O)c3)cc2C#N)C[C@H]1C` [Compound 284, (R)—N-(3-(5-cyano-2-cyclopropyl-6-(4-(3-methoxypropanoyl)-3-methylpiperazin-1-yl)pyridin-3-yl)phenyl)acetamide], the IC50 at IDH1 R132H (setting [1]) is 500 to 1000 nM. In the case of `CCOc1ccccc1-c1cc(C(C)C)nc(N2CCN(C(=O)c3ccoc3)[C@H](C)C2)c1C#N` [Compound 163, (R)-4-(2-ethoxyphenyl)-2-(4-(furan-3-carbonyl)-3-methylpiperazin-1-yl)-6-isopropylnicotinonitrile], the IC50 on IDH1 R132H (Table 3, enzyme assay, 50 minutes at room temperature, read-out: IC50 (IDH1 R132H Inhibition)) fell in the range of 1000 to 5000 nM. As for `COCCC(=O)N1CCN(c2nc(C3CC3)c(Nc3ccnc(C(N)=O)c3)cc2C#N)C[C@H]1C` [Compound 729, (R)-4-(5-cyano-2-cyclopropyl-6-(4-(3-methoxypropanoyl)-3-methylpiperazin-1-yl)pyridin-3-ylamino)picolinamide], the IC50 at IDH1 R132H (setting [1]) is under 500 nM. Still for that read-out and setting: the value for `N#Cc1cc(-c2cc(C#N)c(N3CCN(C(=O)C4CC4)[C@H](C4CC4)C3)nc2C2CC2)cnn1` [Compound 641, (R)-5-(5-cyano-6-(4-(cyclopropanecarbonyl)-3-cyclopropylpiperazin-1-yl)-2-cyclopropylpyridin-3-yl)pyridazine-3-carbonitrile] was under 500 nM.

The record behind these values is patent publication US9856279B2 (AGIOS PHARMACEUTICALS, INC, priority 2011, dated 2018).
